The results in this text go back to patent publication US7098216B2, “Thiazolopyrimidines useful as TNFα inhibitors” (The Regents of the University of California, priority 1999, dated 2006).

Where two headings read alike, the source gives them in different places.

Series [1] concerns TNFα production in human monocytes. Nature of the series: Inhibition of LPS-induced TNFα production in human monocytes (ELISA). As to conditions: Monocyte. The format is cell-based. As to the method:
(§1) Peripheral blood mononuclear cells were isolated from normal human blood on Hypaque-Ficoll density gradients. 100 μl aliquots of monocytes were placed onto 96 well microtiter plates at a density of […] in RPMI-1640 medium containing 10% autologous plasma. After incubation for 24 hrs., various concentrations of the test compound in DMSO were added to the plated cells in a volume of 100 μl and incubated for 1 hr. After incubation, […] of LPS was added to each well.
(§2) Eighteen hours after exposure of the plated cells to LPS, 100 μl of medium was collected from each well and assayed (by ELISA, R&D Systems) for release of IL-1 and TNFα, using recombinant human TNF as a standard (n=5). The sensitivity of the assay ranged from 10–100 pg/ml.
Background: ELISA stands for enzyme-linked immunosorbent assay.

The subject of series [2] is TNFα plasma concentration. Nature of the series: Oral 8a dose response on LPS-induced plasma TNFα in mice. The format is in vivo, ICR mice. As to the method: ICR mice were dosed orally at 25, 50 and 100 mg/kg of 8a in cyclodextrin, prepared as in Example 7. After 1 hr., each mouse was injected with E. coli LPS (1 μg/mouse). Two hours later, 250 μl samples of blood were obtained by retro-orbital bleeding without anesthetization. The blood was heparinized, centrifuged for 10 min. at 10 K rpm (4° C.) and TNFα determined by ELISA. […] The two bars at the top of the figure show the baseline levels of TNFα in the mouse plasma, which were undetectable, and the effects of 8a administered alone, which were negligible.

In a further series the test system is adjuvant arthritis. Nature of the series: Adjuvant arthritis in Lewis rats. The format is in vivo. Conditions: 100 mg/kg by gavage daily. How it is done:
Since TNFα antagonists have shown considerable value in the treatment of rheumatoid arthritis, compound 8a was evaluated in an animal model that is TNFα dependent. Adjuvant arthritis is an acute inflammatory disease induced in certain rat strains by the administration of heat-killed mycobacteria dispersed in […]. The disease is manifest by severe joint swelling, mainly of the ankles and feet.
Two groups of seven Lewis rats each were immunized intradermally with 5 mg of heat-killed mycobacterium tuberculosis emulsified in incomplete Freund's adjuvant. One day later, one group of animals (N=7) received 100 mg/kg of 8a by gavage. Another group of animals received no treatment. The oral dosing was continued every day up to day 30. […] The mean arthritis score can vary from 0 to 4 for each limb, yielding a maximum score of 16. Note that the untreated animals (group 1) achieved a mean arthritis score of 10 on day 18. In contrast, the treated animals reach a mean arthritis score of 5, for 50% inhibition.

The next series deals with TNFα in the plasma. Nature of the series: Time course of TNFα inhibition after oral 8a in LPS-injected mice. The format is in vivo, ICR mice. Conditions: 100 mg/kg by gavage, LPS 24 hours later (FIG. 6). How it is done: The purpose of these experiments was to determine how long after administration of compound 8a by gavage could its inhibitory effects on LPS-induced TNFα production be detected. Accordingly, all the ICR in this instance were given 8a at a dosage of 100 mg/kg by gavage. Then at 1, 4, 10, and 24 hours later, each animal received 1 μg/ml IP LPS, and two hours later (i.e., at 3, 6, 12, and 26 hours), blood was removed for TNFα ELISA.

A further series deals with Jurkat cell line. Nature of the series: Jurkat cell growth, MTT assay. The format is cell-based, human. As to conditions: concentration below 50 μM, 72 h, MTT (FIG. 3). How it is done: In this experiment, cells of the continuous human lymphoblastoid Jurkat cell line were suspended at 1×10^5/ml in complete medium containing various amounts of 8a and 8b dissolved in DMSO. Seventy-two hours later the cell density was assessed using the MTT assay, which measures the reduction of a tetrazolium dye. The cell densities were compared to control cultures lacking any additional drugs.

The nature of series [3]: Acute toxicity testing in ICR mice, IP. The format is in vivo. As to conditions: five daily IP injections at 100 mg/kg, 30 days of observation. As to the method: ICR mice (ca. 20 g) were injected IP for 5 days with 50 mg/kg, and 100 mg/kg of each of 8a and 8b dispersed in aqueous hydroxypropyl β-cyclodextrin (50% w/v).
For series [4], the system named is IL-1β production by human monocytes. Nature of the series: Inhibition of LPS-induced IL-1β production in human monocytes (ELISA). The format is cell-based. As to conditions: Monocyte; human monocytes stimulated with LPS (FIG. 2); read-out: 50% inhibitory dose, IL-1 production. How it is done:
as §1, §2
FIG. 2 summarizes the effects of 8b and 8a on the production of IL-1β by human monocytes stimulated with LPS, under the same conditions used for the TNFα study.

Setting [5] is: human monocytes, LPS, 18 h, ELISA (FIG. 1), read-out: IC50, TNFα production.

`COc1ccc(C2CNC(=O)C2)cc1OC1CCCC1` (stereo not shown) [rolipram, reference compound]: the IC50 in series [1] (setting [5]) came out at 2500 nM.

Turning to `Fc1ccc(-c2ncn(CCCN3CCOCC3)c2-c2ccncc2)cc1` [SB-210313, reference compound], the IC50 in series [1] (setting [5]) turned out to be 1150 nM.

In the case of `CCOC(=O)CCCn1c(=O)c2sc(N)nc2n(C)c1=O` [8a, Ethyl 4-[2-Amino-4-methyl-5,7-dioxothiazolo [4,5-d]pyrimidin-6-yl]-butanoate], the “effect on TNFα plasma concentration” value in series [2] (25 mg/kg oral, LPS 1 h later, blood 2 h after LPS (FIG. 5)) was “significant inhibitory effect”; in series [2] (50 mg/kg oral, compared with 25 mg/kg (FIG. 5)), “greater”. The “effect of 8a administered alone on plasma TNFα” value in series [2] (without LPS (FIG. 5)) is “negligible”. In addition, the IC50 in series [1] (Homo sapiens, 18 h, read-out: IC50, TNFα production) is 676 nM; in series [1] (Homo sapiens, read-out: TNF inhib. (IC50)) it was 676 nM; in series [4], 1000 to 3000 nM. Moreover, the mean arthritis score in the series on adjuvant arthritis (maximum score 16, untreated 10 on day 18 (FIG. 7)) was found to be 5. In addition, the inhibition (as a rule, the drop in the measured response relative to a control, in per cent) at 100 mg/kg in the series with adjuvant arthritis (Rattus norvegicus, po, versus untreated, read-out: inhibition of arthritis score) is 50%. In addition, the “accumulation of TNFα in plasma of LPS-injected mice” value in the series with TNFα in the plasma is given as “completely inhibited”. The “growth inhibitory activity on Jurkat cells” value in the series with Jurkat cell line is “neither 8b nor 8a had significant growth inhibitory activity”. Further, in series [3], the “weight change or lethargy” value is “no weight change or detectable lethargy”.
